Experimental data as given in EPA's ToxValDB 9.5 (doi:10.2903/j.efsa.2015.4032).

Assays:
[1] = test system: Aphidius rhopalosiphi; test: LR50; higher = less toxic; details: not reported; mortality
[2] = test system: Typhlodromus pyri; test: LR50; higher = less toxic; details: not reported; mortality
[3] = test system: Rattus norvegicus
[4] = test system: Colinus virginianus
[5] = test system: Pimephales promelas; details: chronic/long-term; duration: 33 days; other
[6] = test system: Daphnia magna; details: chronic/long-term; duration: 21 days; reproduction
[7] = test system: Bibionidae; details: chronic/long-term; duration: 28 days
[8] = test system: Hypoaspis aculeifer; details: chronic/long-term
[9] = test system: Tagia sp.
[10] = test system: Apis mellifera; details: acute, mortality
[11] = test system: Folsomia candida; details: chronic/long-term

SMILES: Cc1cccc2sc3nncn3c12 [2,7,8,9-Tricyclazole]
- LR50 [1]: < 460 g/ha
- LR50 [2]: > 460 g/ha
- LD50 ([3]; acute, oral, F, mortality): 237 mg/kg-day
- NOAEL ([3]; chronic): 5 mg/kg-day
- LD50 ([4]; acute, oral): > 2180 mg/kg-day
- LC50 ([4]; acute, oral, diet): > 1140 mg/kg-day
- NOAEL ([4]; reproduction developmental): 27.1 mg/kg-day
- NOEC [5]: 0.743 mg/L
- NOEC [6]: 1.3 mg/L
- NOEC [7]: 1.68 mg/L
- NOEC [8]: 16 mg/kg
- LC50 ([9]; acute, duration: 14 days, mortality): > 1000 mg/kg
- NOEC ([9]; chronic/long-term): 250 mg/kg
- LD50 ([10]; dermal): > 99 µg/piece
- LD50 ([10]; oral, unspecified): 30.9 µg/piece
- NOEC [11]: 32 mg/kg
